According to article PMC5698418 (Nature Communications, 2017):

Columns and labels:
surface GluA1 = test: Surface AMPAR (GluA1) imaging along dendrites; format: cell-based, mouse; conditions: 16.7 µM, 6 h with BDNF, vs untreated and BDNF alone; for BDNF: BDNF alone vs baseline
Description: Our procedure to label surface AMPARs containing the GluA1 subunit was adapted from two reports[14],[61]. Precisely, DIV14 primary cortical neurons cultured on coverslips were rinsed once with room temperature PBS^MC (PBS containing 0.5 mM CaCl2, 1 mM MgCl2, and 4% sucrose). Live cells were then incubated for 30 min at room temperature with GluA1 primary antibody solution (PBS^MC with antibody against the extracellular N-terminus of GluA1 (EMD Millipore Corp, clone RH95, 5.0 µg ml^−1)). Next, cells were rinsed twice with ice-cold PBS^MC followed by fixation with 4% paraformaldehyde + 4% sucrose solution for 15 min at room temperature. After fixation, neurons were washed with regular PBS and then incubated overnight with Map2 primary antibody solution (PBS with 0.125% Triton X-100, 5% normal goat serum, and anti-Map2 antibody) to label dendrites. Next day, coverslips were washed with PBS, incubated with appropriate secondary antibodies for 1 h at room temperature, and finally mounted on glass slides with ProLong Antifade reagent (Invitrogen).
(§1) Quantification of surface GluA1 puncta was performed according to the following strategy. First, overlapping digital images of GluA1 and Map2 immunostainings were collected using a Zeiss AxioObserver Z1 inverted microscope and ×63 oil immersion objective. Second, thresholding and segmentation based on the Map2 images was used to remove GluA1 signals outside of dendritic processes. Importantly, the same background/foreground cutoff threshold was used for images of all experimental conditions. Third, the length of dendrites for each image set was measured and recorded. Finally, distinct GluA1 foreground objects along dendrites >5 pixels were counted using the particle analysis tool in ImageJ and presented as the average number of GluA1 puncta per µm of dendrite length for each experimental condition.

Arc protein [1] = test: Western blot of total Arc protein in primary cortical neurons; format: cell-based, mouse; conditions: BDNF 6 h supplemented with compound
Description: Forebrains of E16.5 C57BL/6 mouse embryos were dissected and then dissociated in trypsin solution for 15 min followed by three washes with phosphate-buffered saline (PBS). Single-cell suspension was achieved by gentle pipet trituration. Neurons were seeded in poly-L-lysine/laminin-coated six-well plates at a density of 2 × 10^6 per well and maintained in neurobasal medium containing B27 supplement (2%, Invitrogen, Grand Island, NY), penicillin (50 units ml^−1, Invitrogen), streptomycin (50 µg ml^−1, Invitrogen), and glutamine (1 mM, Sigma). For experiments involving BDNF (EMD Millipore Corps, Billerica, MA), the stock solution (2 ng µl^−1 in water) was added directly to the culture medium at a final concentration of 100 ng ml^−1 for the indicated period of time.
For western blot analyses, cells were collected by scraping in ice-cold radioimmunoprecipitation assay (RIPA) buffer (50 mM Tris-HCl (pH 8.0), 300 mM NaCl, 0.5% Igepal-630, 0.5% deoxycholic acid, 0.1% SDS, 1 mM EDTA) supplemented with a cocktail of protease inhibitors (Complete Protease Inhibitor without EDTA, Roche Applied Science, Indianapolis, IN) and phosphatase inhibitors (phosphatase inhibitor cocktail A, Santa Cruz Biotechnology). One volume of 2× Laemmli buffer (100 mM Tris-HCl (pH 6.8), 4% SDS, 0.15% bromophenol blue, 20% glycerol, 200 mM β-mercaptoethanol) was added and the extracts were boiled for 5 min. Samples were adjusted to an equal concentration after protein concentrations were determined using the BCA assay (Pierce, Thermo Fisher Scientific). Lysates were separated using SDS–PAGE and transferred to a nitrocellulose membrane. After transfer, the membrane was blocked in TBST (Tris-buffered saline + 0.1% Tween 20) supplemented with 5% nonfat powdered milk and probed with the indicated primary antibody at 4 °C overnight. After washing with TBST, the membrane was incubated with the appropriate secondary antibody and visualized using enhanced chemiluminescence (ECL) reagents according to the manufacturer’s guidelines (Pierce, Thermo Fisher Scientific).
The following procedure was used to quantify western blots. First, equal quantity of protein lysate was analyzed by SDS–PAGE for each biological replicate. Second, the exposure time of the film to the ECL chemiluminescence was the same for each biological replicate. Third, all the exposed films were scanned on a Brother MFC-J485DW scanner in grayscale at a resolution of 300 dpi. Fourth, the look-up table (LUT) of the scanned tiff images was inverted and the intensity of each band was individually measured using the selection tool and the histogram function in Adobe Photoshop CC 2015 software. […]

acetyl-H3K9 = test: Acetyl-H3K9 immunofluorescence in neuronal nuclei (multiplexed in screen); format: cell-based, mouse; conditions: screen, 16.7 µM
Description: To increase the throughput of our pharmacological screening for modulators of Arc, the above mentioned assay was adapted to cultures of mouse primary cortical neurons in 96-well plates.
Screening of compounds in the chemogenomic library was carried out using DIV13 primary forebrain cortical neurons cultured on poly-L-lysine/laminin-coated 96-well plates (Ibidi USA, Madison, WI). Cells were seeded at a density of 30,000 cells per well and treated with the compound library and BDNF according to the experimental design presented in Fig. 3a. After experimental treatment, cells were processed for Arc and acetyl-H3K9 immunocytochemistry according to the protocol described above. Both antigens (Arc and acetyl-H3K9) were imaged using an IN Cell Analyzer 6000 imaging system and a ×40 objective. […] High-throughput quantification of nuclear Arc immunofluorescence signal was performed in a similar fashion than the low-throughput procedure described above but with the exception that acetyl-H3K9 was used as a nuclear mask to guide the automated quantification of nuclear Arc immunofluorescence signal.

[2] = tested on: Arc puncta in dendrites of primary cortical neurons; test: Arc puncta along Map2-labeled dendrites (immunocytochemistry); format: cell-based, mouse; conditions: 16.7 µM with BDNF, vs untreated and BDNF alone; for BDNF: BDNF alone vs untreated
Source text: Chemical structure of each compound is presented on top. b Graphs show mean (n = 5) Arc/β-actin ratio (±SEM) for cells treated as in a. […] Tukey’s HSD post hoc test, *p < 0.05; **p < 0.01, ***p < 0.005; ****p < 0.0001. […] Representative captures of DIV14 mouse primary cortical neurons from each experimental condition co-immunostained for Arc (red fluorophore) and Map2 (green fluorophore). White arrowheads show examples of discrete Arc puncta. […] Tukey’s HSD post hoc test, *p < 0.05; ***p < 0.005; ****p < 0.0001
Indirect immunofluorescence detection of antigens was carried out using cortical neurons cultured on poly-L-lysine/laminin-coated coverslips in 24-well plates at a density of 0.1 × 10^7 per well. After experimental treatment, cells were washed twice with PBS and fixed for 30 min at room temperature with 4% paraformaldehyde in PBS. After fixation, cells were washed twice with PBS, permeabilized with PBST (PBS + 0.25% Triton X-100) for 20 min, blocked in blocking solution (PBS + 5% normal goat serum) for another 30 min, and finally incubated overnight at 4 °C with the first primary antibody in blocking solution. The next day, coverslips were extensively washed with PBS and incubated for 2 h at room temperature in the appropriate fluorophore-conjugated secondary antibody solution (Alexa 488- or Alexa 594-conjugated secondary antibody (Molecular Probes, Invitrogen) in blocking solution). After washing with PBS, the coverslips were incubated again overnight in primary antibody solution for the second antigen, and the procedure for conjugation of the fluorophore-conjugated secondary antibody was repeated as above. Finally, cell nuclei were counterstained with 4′,6-diamidino-2-phenylindole (DAPI), and coverslips were mounted on glass slides with ProLong Antifade reagent (Invitrogen).
as §1

[3] = tested on: BDNF-induced nuclear Arc expression in primary cortical neurons; test: Chemogenomic screen: high-content image-based assay of BDNF-induced nuclear Arc expression (96-well); format: cell-based, mouse
In short: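 Nuclear Arc immunofluorescence is quantified automatically within an acetyl-H3K9-defined nuclear mask from ×40 images. Cultures are DIV13 mouse forebrain cortical neurons seeded at 30,000 per well and exposed to BDNF plus compound at a final 16.7 µM, with triplicate biological replicates.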

Arc protein [4] = test: Arc protein half-life after cycloheximide block in primary cortical neurons; format: cell-based, mouse; conditions: BDNF 4 h, then CHX plus oxamflatin; vehicle baseline ~47 min
Description: Each compound was tested at a concentration of 16.7 µM and in combination with BDNF or alone. Arc mRNA level induced by just BDNF was included in each experiment as a reference. Bars represent mean fold-change (f.c.) normalized to Arc expression measured in untreated cultures and each red point represents fold-change for an individual biological replicate (n = 4). d Primary cortical neurons were treated with BDNF for 4 h to induce Arc expression at which point protein synthesis was blocked by direct addition to culture media of cycloheximide (CHX, 50 µg ml^−1) in presence of vehicle or oxamflatin (16.7 µM). […] It is left out because the vehicle is a control and not a substance.
Specifically, we stimulated the cells with BDNF for 4 h to promote accumulation of Arc protein and then added CHX to block all de novo protein translation. Importantly, cultures treated this way were divided in two groups—one to which oxamflatin was added at the same time as CHX and another that was treated with the vehicle only (baseline measure). […] This experiment provided clear evidence that the impact of oxamflatin on Arc protein abundance is, at least in part, the result of a decrease in the rate of Arc protein degradation; however, a mechanistic explanation of how this KDAC inhibitor is modulating the turnover of Arc protein remained elusive at this point.

Neuro2a cells [5] = test: Polyubiquitination of WT and mutant Arc-Myc-FLAG (IP/western) in Neuro2a cells; format: cell-based, mouse; conditions: MG132 10 µM for 20 min
Source text: To assess polyubiquitination of Arc in DIV13 primary cortical neurons, Arc was immunopurified from total lysates using an agarose-conjugated anti-Arc monoclonal antibody (Santa Cruz Biotechnology, clone C-7). Overexpressed WT and mutant Arc-Myc-FLAG in Neuro2a cells were immunopurified from total lysates with anti-FLAG M2 antibody conjugated to magnetic beads (Sigma-Aldrich, M8823). Immunopurified materials were separated using SDS–PAGE and electrophoretically transferred to a nitrocellulose membrane. To enhance the immunodetection of ubiquitin conjugated to Arc, the nitrocellulose membrane was placed between two layers of Whatman filter paper, submerged in distilled water, and autoclaved for 30 min. After autoclaving, the membrane was blocked in blocking solution (TBST supplemented with 5% milk) for 30 min and incubated overnight with an antibody recognizing ubiquitin (Santa Cruz Biotechnology, clone P4D1, 1:200) in blocking solution. Subsequent steps were carried out according to the western blot procedure described above.

Neuro2a cells [6] = conditions: for Fold-change to WT: protein half-life in Neuro2a
Source text: Next, we aimed to determine whether the K24, K33, K55, and K70 residues participate in Arc protein turnover. […] We also included K70 in this experiment because of its position in the coiled-coil and nuclear retention domains of Arc (Fig. 5e) as well as its relative proximity to K55. For this test, we used site-directed mutagenesis to generate plasmids that would allow overexpression of an acetyl-mimic/unmodifiable mutant Arc-Myc-FLAG protein (lysine (K) to glutamine (Q) mutant) for each of these four sites. After transfecting sets of Neuro2a cells with these different constructs, we inhibited translation with CHX and monitored overexpressed protein levels for up to 6 h after.
Lysates were collected at the indicated time points and Arc-Myc-FLAG protein level analyzed in every sample by western blotting with an anti-FLAG antibody. Representative western blots are presented on top and quantification of data normalized to corresponding β-actin and presented as percentage of Arc-Myc-FLAG level (±SEM) at the initial time point after CHX application (t = 0). Curve represents exponential decay fit. b Estimate of protein half-life Arc for WT Arc-Myc-FLAG and each acetyl-mimic mutant is presented in table. c WT and acetyl-mutant Arc-Myc-FLAG polyubiquitination was determined in lysates from overexpressing Neuro2a cells. Lysates were immunoprecipitated with anti-FLAG and western blotted with anti-Ub or anti-Arc as indicated.
Neuro2A cells were cultured in DMEM (supplemented with 10% fetal bovine serum (Gemini-Bio-Products, West Sacramento, CA), penicillin (50 units ml^−1), and streptomycin (50 µg ml^−1)) and transfected overnight using Lipofectamine 2000 (Invitrogen) according to the manufacturer’s protocol. The Neuro2A cell line was generously shared by Dr. Grace Gill.
The pCMV6-Arc-Myc-DDK (FLAG) plasmid (MR206218) was purchased from OriGene Biotechnologies (Rockville, MD). The Arc-Myc-FLAG K24Q, K24R, K33Q, K55Q, K70Q, and K70R plasmids were generated with the help of the Q5 Site-Directed Mutagenesis Kit from New England BioLabs (Ipswich, MA) using WT pCMV6-Arc-Myc-FLAG as template. All constructs were verified by DNA sequencing.

| Molecule | surface GluA1 puncta per dendrite µm (surface GluA1) | total Arc protein vs BDNF plus vehicle control (western blot, Arc/β-actin) (Arc protein [1]) | impact on acetyl-H3K9 immunofluorescence (Z-score) (acetyl-H3K9) | number of Arc puncta in dendritic projections [2] | Percentage of cell with nuclear Arc immunostaining above 2σ threshold [3] [%] | rank among potentiators of BDNF-induced nuclear Arc expression in screen ([3]; 16.7 µM, three biological replicates) | Fold-change — Normalized to DMSO control (BDNF) ([3]; nuclear Arc-positive cells relative to DMSO + BDNF control, negative values = decrease) [fold] | Arc protein half-life (regression analysis) (Arc protein [4]) | polyubiquitination of Arc-Myc-FLAG mutant (Neuro2a cells [5]) | Estimated t½ (Neuro2a cells [6]) [h] | Fold-change to WT (Neuro2a cells [6]) |
| --- | --- | --- | --- | --- | --- | --- | --- | --- | --- | --- | --- |
| oxamflatin | significant decrease in surface GluA1 levels | significantly more Arc protein | strong impact | significantly greater number of Arc puncta | 50.0 | second | 2.6 | ~ 112 min | – | – | – |
| K24Q: acetyl-mimic/unmodifiable mutant Arc-Myc-FLAG, lysine 24 to glutamine (protein, UniProt Q9WV31 1-396, looked up, variant K24Q, Myc-FLAG tag, acetyl-mimic/unmodifiable mutant Arc-Myc-FLAG, lysine 24 to glutamine) Activity-regulated …: MELDHMTTGGLHAYPAPRGGPAAQPNVILQIGKCRAEMLEHVRRTHRHLLTEVSKQVERELKGLHRSVGKLENNLDGYVPTGDSQRWKKSIKACLCRCQETIANLERWVKREMHVWREVFYRLERWADRLESMGGKYPVGSEPARHTVSVGVGGPEPYCQEADGYDYTVSPYAITPPPAAGELPEQESVEAQQYQSWGPGEDGQPSPGVDTQIFEDPREFLSHLEEYLRQVGGSEEYWLSQIQNHMNGPAKKWWEFKQGSVKNWVEFKKEFLQYSEGTLSREAIQRELELPQKQGEPLDQFLWRKRDLYQTLYVDAEEEEIIQYVVGTLQPKLKRFLRHPLPKTLEQLIQRGMEVQDGLEQAAEPSGTPLPTEDETEALTPALTSESVASDRTQPE | – | – | – | – | – | – | – | – | noticeable decrease in polyubiquitination | 6.66 | 2.40 |
| K70Q: acetyl-mimic/unmodifiable mutant Arc-Myc-FLAG, lysine 70 to glutamine (protein, UniProt Q9WV31 1-396, looked up, variant K70Q, Myc-FLAG tag, acetyl-mimic/unmodifiable mutant Arc-Myc-FLAG, lysine 70 to glutamine) Activity-regulated …: MELDHMTTGGLHAYPAPRGGPAAKPNVILQIGKCRAEMLEHVRRTHRHLLTEVSKQVERELKGLHRSVGQLENNLDGYVPTGDSQRWKKSIKACLCRCQETIANLERWVKREMHVWREVFYRLERWADRLESMGGKYPVGSEPARHTVSVGVGGPEPYCQEADGYDYTVSPYAITPPPAAGELPEQESVEAQQYQSWGPGEDGQPSPGVDTQIFEDPREFLSHLEEYLRQVGGSEEYWLSQIQNHMNGPAKKWWEFKQGSVKNWVEFKKEFLQYSEGTLSREAIQRELELPQKQGEPLDQFLWRKRDLYQTLYVDAEEEEIIQYVVGTLQPKLKRFLRHPLPKTLEQLIQRGMEVQDGLEQAAEPSGTPLPTEDETEALTPALTSESVASDRTQPE | – | – | – | – | – | – | – | – | noticeable decrease in polyubiquitination | 6.15 | 2.22 |
